Laboratory results published in article PMC6387142, “Multi-Residue Method for the Analysis of Stilbene Estrogens in Milk” (International Journal of Molecular Sciences, 2019).

Biological target: T1, estrogen receptor α ligand binding domain (ER-LBD) (Homo sapiens, UniProt P03372)
T1 construct: gene ESR1
T1 sequence (P03372 311-547 limits assumed): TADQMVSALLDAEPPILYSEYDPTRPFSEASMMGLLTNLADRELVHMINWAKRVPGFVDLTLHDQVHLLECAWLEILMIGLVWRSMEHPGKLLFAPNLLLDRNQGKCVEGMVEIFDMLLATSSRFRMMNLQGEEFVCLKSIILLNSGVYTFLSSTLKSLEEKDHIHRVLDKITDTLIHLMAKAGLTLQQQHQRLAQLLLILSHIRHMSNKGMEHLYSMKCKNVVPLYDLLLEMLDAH
Test: competitive fluorescence polarization, displacement of coumestrol from purified ER-LBD

Compound	IC50
C/C=C(/C(=C/C)c1ccc(O)cc1)c1ccc(O)cc1 [dienestrol]	12.9 nM
CC[C@H](c1ccc(O)cc1)[C@@H](CC)c1ccc(O)cc1 [hexestrol]	9.27 nM
